Target: Replicase polyprotein 1ab (Severe acute respiratory syndrome coronavirus 2) (UniProt P0DTD1)
Description: Functional biochemical assay to identify treatments for viral infectious disease that targets SARS-COV-2 nsp3 macrodomain, whereby the mechanism of action displaces an ADP-Ribose modified peptide from the binding site. Utilizing a time-resolved fluorescence method to measure binding by reading the emitted fluorescence intensity in two wavelengths.

FC(F)(F)c1ccccc1[C@@H]1CN(c2ncnc3[nH]ccc23)CCO1
inhibition (Concentration 50.0 uM, Number of replicates 2.0, Standard deviation 3.904 %): -5.31%

CC(C)n1cc(S(=O)(=O)Nc2cnc3[nH]ncc3c2)cn1
inhibition (Concentration 50.0 uM, Number of replicates 4.0, Standard deviation 3.956 %): 1.55%

O=C(c1ncc[nH]1)N1CCC(c2ccn3ncc(C(=O)N4CCCCC4)c3c2)CC1
inhibition (Concentration 49.75 uM, Number of replicates 2.0, Standard deviation 1.065 %): 18.5% | inhibition (Concentration 99.5 uM, Number of replicates 2.0, Standard deviation 3.121 %): 37.2%

COc1cc(CC(=O)Nc2cc3c(=O)nc[nH]c3cn2)on1
inhibition (Concentration 49.75 uM, Number of replicates 2.0, Standard deviation 0.449 %): -4.69% | inhibition (Concentration 99.5 uM, Number of replicates 2.0, Standard deviation 2.956 %): -3.48%

O=C(CCN(Cc1cccc(Cl)c1)C(=O)[C@H]1CCOC1)N1CCNCC1
inhibition (Concentration 49.75 uM, Number of replicates 2.0, Standard deviation 12.724 %): 4.08% | inhibition (Concentration 99.5 uM, Number of replicates 2.0, Standard deviation 2.436 %): -3.96%

O=C(NCc1cc2n(n1)CCCC2)c1cc2cncnc2[nH]1
inhibition (Concentration 50.0 uM, Number of replicates 4.0, Standard deviation 10.451 %): 4.17%

CN(C(=O)c1cnn2ccc(C3CCN(C(=O)c4ccccc4)CC3)cc12)c1ccccc1O
inhibition (Concentration 49.75 uM, Number of replicates 2.0, Standard deviation 2.649 %): 10% | inhibition (Concentration 99.5 uM, Number of replicates 2.0, Standard deviation 4.361 %): 15.9%

O=C(CCN(Cc1cccc(Cl)c1)C(=O)c1ccccc1F)N1CCNCC1
inhibition (Concentration 49.75 uM, Number of replicates 2.0, Standard deviation 0.399 %): -0.625% | inhibition (Concentration 99.5 uM, Number of replicates 2.0, Standard deviation 0.282 %): 0.395%

O=C(c1cc(O)ccn1)N1CCC(c2ccn3ncc(C(=O)N4CCCCC4)c3c2)CC1
inhibition (Concentration 49.75 uM, Number of replicates 2.0, Standard deviation 1.167 %): 17.6% | inhibition (Concentration 99.5 uM, Number of replicates 2.0, Standard deviation 1.673 %): 32.2%

Cc1ccnc(C2CCN(c3ncnc4[nH]ccc34)CC2)n1
inhibition (Concentration 50.0 uM, Number of replicates 2.0, Standard deviation 3.755 %): 3.46%

O=C(Nc1cnc2[nH]ncc2c1)C1(c2ccccc2)CC1
inhibition (Concentration 50.0 uM, Number of replicates 2.0, Standard deviation 8.824 %): 3.21%

Cc1[nH]c2ncnc(NC(=O)C3CC=CC3)c2c1C
inhibition (Concentration 50.0 uM, Number of replicates 2.0, Standard deviation 5.54 %): 73.1%

OC[C@H](Cc1ccccc1)Nc1ncnc2[nH]ccc12
inhibition (Concentration 50.0 uM, Number of replicates 2.0, Standard deviation 2.629 %): -1.29% | inhibition (Concentration 100.0 uM, Number of replicates 2.0, Standard deviation 0.62 %): 8.93%

Cn1nc(NC(=O)c2cc(-c3ccco3)[nH]n2)c2nccnc21
inhibition (Concentration 50.0 uM, Number of replicates 2.0, Standard deviation 0.879 %): -5.4%

Cc1nc(NC(=O)c2ccnn2C(C)C)c2cc[nH]c2n1
inhibition (Concentration 50.0 uM, Number of replicates 2.0, Standard deviation 4.637 %): -2.64% | inhibition (Concentration 100.0 uM, Number of replicates 2.0, Standard deviation 4.768 %): -4.35%

CC(=O)Nc1ccc(S(=O)(=O)NNc2ncnc3sccc23)cc1
inhibition (Concentration 50.0 uM, Number of replicates 2.0, Standard deviation 2.273 %): 5.36%

O=C(O)c1ccc(C(=O)N2CCC(c3ccn4ncc(C(=O)N5CCCCC5)c4c3)CC2)o1
inhibition (Concentration 49.75 uM, Number of replicates 2.0, Standard deviation 3.483 %): 40.5% | inhibition (Concentration 99.5 uM, Number of replicates 2.0, Standard deviation 5.512 %): 58.1%

c1ccc2c(-c3c[nH]c4ncccc34)n[nH]c2c1
inhibition (Concentration 50.0 uM, Number of replicates 2.0, Standard deviation 4.4 %): -7.25%

Cc1[nH]nc(C(=O)N2CCC(c3ccn4ncc(C(=O)N5CCCCC5)c4c3)CC2)c1C
inhibition (Concentration 49.75 uM, Number of replicates 2.0, Standard deviation 4.553 %): 18% | inhibition (Concentration 99.5 uM, Number of replicates 2.0, Standard deviation 2.151 %): 33.8%

Cc1cc(C(=O)Nc2[nH]nc3nc(O)ccc23)c2c(C)nn(C)c2n1
inhibition (Concentration 50.0 uM, Number of replicates 2.0, Standard deviation 0.36 %): -6.17% | inhibition (Concentration 100.0 uM, Number of replicates 2.0, Standard deviation 2.675 %): -3.32%

OC[C@@H](Nc1ncnc2[nH]c(I)cc12)c1ccccc1
inhibition (Concentration 50.0 uM, Number of replicates 2.0, Standard deviation 1.35 %): 26.1%

O=C(N[C@H]1CCC[C@H]1C(=O)O)c1cnn2ccc(C3CCN(C(=O)c4ccccc4)CC3)cc12
inhibition (Concentration 49.75 uM, Number of replicates 2.0, Standard deviation 2.492 %): 59.6% | inhibition (Concentration 99.5 uM, Number of replicates 2.0, Standard deviation 0.074 %): 73.5%

O=C(O)c1sccc1C(=O)N1CCC(c2ccn3ncc(C(=O)N4CCCCC4)c3c2)CC1
inhibition (Concentration 49.75 uM, Number of replicates 2.0, Standard deviation 1.624 %): 55.5% | inhibition (Concentration 99.5 uM, Number of replicates 2.0, Standard deviation 1.425 %): 71.5%

N[C@@H]1CCC[C@@H](C(=O)N(CCC(=O)N2CCNCC2)Cc2cccc(Cl)c2)C1
inhibition (Concentration 49.75 uM, Number of replicates 2.0, Standard deviation 0.617 %): -0.755% | inhibition (Concentration 99.5 uM, Number of replicates 2.0, Standard deviation 0.793 %): -1.47%

Cn1ncnc1C(=O)N1CCC(c2ccn3ncc(C(=O)N4CCCCC4)c3c2)CC1
inhibition (Concentration 49.75 uM, Number of replicates 2.0, Standard deviation 0.221 %): 2.38% | inhibition (Concentration 99.5 uM, Number of replicates 2.0, Standard deviation 2.086 %): 20.4%

Cn1nc(NCc2cc3c(=O)[nH]ccc3o2)c2nccnc21
inhibition (Concentration 50.0 uM, Number of replicates 2.0, Standard deviation 1.985 %): -1.01%

O=C(Nc1ccccc1)Nc1ccc(C(=O)Nc2nnc(C(F)(F)F)[nH]2)cc1
inhibition (Concentration 49.75 uM, Number of replicates 2.0, Standard deviation 1.534 %): -3.2% | inhibition (Concentration 99.5 uM, Number of replicates 2.0, Standard deviation 0.592 %): -1.46%

c1ccc(CN2CCO[C@@H](CNc3ncnc4nc[nH]c34)C2)cc1
inhibition (Concentration 50.0 uM, Number of replicates 2.0, Standard deviation 1.424 %): -2.44%

O=C(C[C@@H](NC(=O)c1ncnc2[nH]ccc12)C1CC1)NCc1ccc(C(=O)O)cc1
inhibition (Concentration 49.75 uM, Number of replicates 2.0, Standard deviation 1.213 %): -9.86% | inhibition (Concentration 99.5 uM, Number of replicates 2.0, Standard deviation 0.076 %): 0.768%

O=C(CCN(Cc1cccc(Cl)c1)C(=O)c1c[nH]c(=O)cn1)N1CCNCC1
inhibition (Concentration 49.75 uM, Number of replicates 2.0, Standard deviation 1.237 %): -2.71% | inhibition (Concentration 99.5 uM, Number of replicates 2.0, Standard deviation 0.012 %): 0.98%

O=C1C[C@H](CNC(=O)c2ccc(NC(=O)Nc3ccccc3)cc2)CCN1
inhibition (Concentration 49.75 uM, Number of replicates 2.0, Standard deviation 1.043 %): 1.22% | inhibition (Concentration 99.5 uM, Number of replicates 2.0, Standard deviation 0.12 %): 4.01%

Cc1cc(CNC(=O)c2cnn3ccc(C4CCN(C(=O)c5ccccc5)CC4)cc23)n(C)n1
inhibition (Concentration 49.75 uM, Number of replicates 2.0, Standard deviation 3.014 %): -5.51% | inhibition (Concentration 99.5 uM, Number of replicates 2.0, Standard deviation 0.205 %): -8.12%

COCc1cc(CNc2cc3c(O)ncnc3cn2)no1
inhibition (Concentration 50.0 uM, Number of replicates 2.0, Standard deviation 0.223 %): 3.31%

c1cnc([C@@H]2CCN(c3ncnc4[nH]ccc34)C2)cn1
inhibition (Concentration 50.0 uM, Number of replicates 2.0, Standard deviation 2.663 %): -1.7%

C[C@H](NC(=O)c1ccc(NC(=O)Nc2ccccc2)cc1)c1ccccn1
inhibition (Concentration 49.75 uM, Number of replicates 2.0, Standard deviation 2.561 %): 2.45% | inhibition (Concentration 99.5 uM, Number of replicates 2.0, Standard deviation 6.365 %): 0.349%

Cc1cccc(Cl)c1S(=O)(=O)Nc1cnc2[nH]ncc2c1
inhibition (Concentration 50.0 uM, Number of replicates 2.0, Standard deviation 1.912 %): -0.254%

Cc1n[nH]c(C)c1C(=O)N1CCC(c2ccn3ncc(C(=O)N4CCCCC4)c3c2)CC1
inhibition (Concentration 49.75 uM, Number of replicates 2.0, Standard deviation 0.408 %): 10.8% | inhibition (Concentration 99.5 uM, Number of replicates 2.0, Standard deviation 0.015 %): 23.3%

Cn1nc(C(=O)O)cc1C(=O)N1CCC(c2ccn3ncc(C(=O)N4CCCCC4)c3c2)CC1
inhibition (Concentration 49.75 uM, Number of replicates 2.0, Standard deviation 5.569 %): 34.2% | inhibition (Concentration 99.5 uM, Number of replicates 2.0, Standard deviation 2.729 %): 52.7%

COc1nc2cc(NC(=O)c3cc(N4CCNC4=O)ccc3F)ccc2[nH]1
inhibition (Concentration 50.0 uM, Number of replicates 2.0, Standard deviation 4.804 %): -4.21%

Cc1n[nH]cc1CN(C)C(=O)c1ccc(NC(=O)Nc2ccccc2)cc1
inhibition (Concentration 49.75 uM, Number of replicates 2.0, Standard deviation 4.474 %): -3.77% | inhibition (Concentration 99.5 uM, Number of replicates 2.0, Standard deviation 2.774 %): -0.031%

O=C(Cc1n[nH]c2c1CCCC2)Nc1cnc2[nH]ncc2c1
inhibition (Concentration 50.0 uM, Number of replicates 2.0, Standard deviation 2.447 %): -1.26%

OC[C@@H]1CN(c2ncnc3nc[nH]c23)CCC1(F)F
inhibition (Concentration 50.0 uM, Number of replicates 2.0, Standard deviation 0.855 %): 1.75%

O=C(CCN(Cc1cccc(Cl)c1)C(=O)C1CCC(O)CC1)N1CCNCC1 (centres undefined)
inhibition (Concentration 49.75 uM, Number of replicates 2.0, Standard deviation 4.563 %): -4.32% | inhibition (Concentration 99.5 uM, Number of replicates 2.0, Standard deviation 1.877 %): 0.465%

CC(C)[C@@H](CCN(C)C(=O)C1CCc2ccccc2CC1)Nc1ncnc2[nH]ccc12
inhibition (Concentration 49.75 uM, Number of replicates 2.0, Standard deviation 5.252 %): -5.62%

O=C1C[C@@]2(CCCN(c3ncnc4[nH]ccc34)C2)CN1
inhibition (Concentration 50.0 uM, Number of replicates 2.0, Standard deviation 0.483 %): -2.45%

O=C1NC[C@@H](C(=O)N(CCC(=O)N2CCNCC2)Cc2cccc(Cl)c2)O1
inhibition (Concentration 49.75 uM, Number of replicates 2.0, Standard deviation 2.173 %): 0.125% | inhibition (Concentration 99.5 uM, Number of replicates 2.0, Standard deviation 10.437 %): 5.24%

COc1cc(OC)cc(C(=O)N(CCC(=O)N2CCNCC2)Cc2cccc(Cl)c2)c1
inhibition (Concentration 50.0 uM, Number of replicates 2.0, Standard deviation 1.533 %): -4.53%

C[C@@H](Nc1ncnc2[nH]ccc12)c1cnn(Cc2ccccc2)c1
inhibition (Concentration 49.75 uM, Number of replicates 2.0, Standard deviation 0.659 %): -4.11% | inhibition (Concentration 99.5 uM, Number of replicates 2.0, Standard deviation 0.985 %): 3.18%

CN1CCO[C@H](CNC(=O)c2ccc(NC(=O)Nc3ccccc3)cc2)C1
inhibition (Concentration 49.75 uM, Number of replicates 2.0, Standard deviation 5.309 %): -0.616% | inhibition (Concentration 99.5 uM, Number of replicates 2.0, Standard deviation 6.496 %): 3.27%

Nc1ncc(C(=O)N(CCC(=O)N2CCNCC2)Cc2cccc(Cl)c2)cn1
inhibition (Concentration 49.75 uM, Number of replicates 2.0, Standard deviation 3.901 %): -2.76% | inhibition (Concentration 99.5 uM, Number of replicates 2.0, Standard deviation 0.039 %): -1.73%
